How the values were obtained:
Type in all cases: in vivo, Caenorhabditis elegans
N2 wild type worms [1] = assay: Microfluidic reproduction monitoring (egg laying start/end, reproductive span, eggs laid); conditions: for Eggs laid (#): average number of eggs laid per worm within the timespan of egg laying; for Eggs laid (#) / Egg laying end / Reproductive span: concentrations per Table 2; for Egg laying start: time from injection of L4 larvae until first egg, continuous exposure, concentrations per Table 2 (Cpd 1 100 μM, Cpd 2 25 mM); for Egg laying start / Egg laying end / Reproductive span: mean; for Egg laying end: time from injection of L4 larvae until last egg; for Reproductive span: timespan of egg laying; for Variation (%) of egg laying end (time of the last egg laid) / Variation (%) of egg laying start / Variation (%) of eggs laid / Variation (%) of reproductive span (timespan of egg laying): vs negative control DMSO 1%
Protocol: (§1) For the purpose of this study, the two compounds and four combinations of the two compounds were tested on a microfluidic platform. Worms were injected at the L4 larval stage, confined in dedicated microfluidic chambers, and continuously subjected to the presence of the two compounds, alone or in combination, from the L4 larval stage to the end of the experiment (corresponding to the day when the worm is dead). Acquisition of short sequences of videos for each microfluidic chamber containing worms were executed automatically every six (6) hours during the duration of the assay. The measurement of the motility, as well as the worm size to address compound toxicity (1) and the reproduction assessing longevity (2), were performed on the acquired sequences of videos by using an algorithm (3,4). Dead/live worms were identified automatically, based on the motility parameters. Each condition was tested in four technical replicates on different microfluidic cartridges. The experiment was performed once.
(§2) The proposed study was conducted according to the design and timeline depicted in FIG. 1. N2 wild-type C. elegans were grown on solid nematode growth medium (NGM) agar plates until the adult stage and harvested in complete S-Medium. Eggs from the adult population were hatched overnight in S-Medium and the resulting L1 progeny was recovered with a dedicated filter. L1 larvae were then collected through filtering in S-medium, seeded on NGM agar plates and grown for 48 hours (h) at 20° C. […] L4 larvae were then collected through filtering in 5 mL S-medium. 20 to 30 L4 were injected in the microfluidic chips for each condition. Worms were then continuously fed on-chip via bacterial medium, for the duration of the entire experiment. Videos of each micro-chamber were acquired after the feeding during the whole experiment, every 6 hours.
(§3) The two compounds, Compound 1 and Compound 2, were suspended in DMSO at the stock concentration of 100 mM and 2.5 M, respectively (Table 1). Compounds were then mixed with the bacterial medium at the targeted concentrations, alone or in combination (Table 2). For all tested conditions, the final vehicle (DMSO) concentration was 1%. For the negative control condition, nematodes were fed with a bacterial medium containing only the vehicle solution (DMSO 1%). All stock solutions were stored at −20° C. and dilutions were made freshly on the day of starting the on-chip experiment and then every 72 h to replace the compound/bacterial medium solutions.
Five time-resolved phenotypic readouts were extracted during the assays, including: • Worm size (area): this parameter was measured to evaluate the potential effects of the tested compound on growth retardation or larval arrest phenotype (7). • Sexual maturity: this parameter was measured to evaluate the potential effects of the tested compound on the timing required by a worm to reach the sexual maturity, determined by the observation of the first embryo (i.e., egg) produced in each microfluidic chamber.
Bar graphs represent mean+/−sem. p values were obtained by comparing the negative control (blue bars) versus the treatment via One-way ANOVA followed by Bonferroni's multiple comparisons test (p<0.05). * statistics versus the negative control (DMSO 1%).

N2 wild type worms [2] = assay: Microfluidic motility monitoring (head, midbody, tail amplitude, bending frequency, velocity); conditions: vs negative control; for overall motility: all motility parameters improved, in average: all 5 parameters
Protocol: as §1, §2, §3
Worm motility is an additional phenotypic readout, where five parameters of the motility were assessed every 6 hours from acquired videos (2 seconds long, 10 frames per second for each video). At each time point, the values recorded for dead worms were excluded. The five motility parameters monitored included (3): • the amplitude of the movement at the head • the amplitude of the movement at the middle of the worm body • the amplitude of tail movement • the worm bending frequency • the worm velocity
These motility parameters were analyzed by phases (Area Under the Curve calculation following by an 2-way ANOVA tests), as defined below: • Phase 1: from day 1 to day 5 • Phase 2: from day 6 to day 10 • Phase 3: from day 11 to day 15 • Phase 4: from day 16 to day 20

N2 wild type worms [3] = assay: Microfluidic growth monitoring (worm size, area); conditions: for effect on the worm's size (in words): vs negative control; for Variation (%) of worm area AUC: vs negative control DMSO 1%
Protocol: as §1
The proposed study was conducted according to the design and timeline depicted in FIG. 1. N2 wild-type C. elegans were grown on solid nematode growth medium (NGM) agar plates until the adult stage and harvested in complete S-Medium. Eggs from the adult population were hatched overnight in S-Medium and the resulting L1 progeny was recovered with a dedicated filter. L1 larvae were then collected through filtering in S-medium, seeded on NGM agar plates and grown for 48 hours (h) at 20° C. After 48 h, the worm population had reached the L4 larval stage. […]
Five time-resolved phenotypic readouts were extracted during the assays, including: • Worm size (area): this parameter was measured to evaluate the potential effects of the tested compound on growth retardation or larval arrest phenotype (7). • Sexual maturity: this parameter was measured to evaluate the potential effects of the tested compound on the timing required by a worm to reach the sexual maturity, determined by the observation of the first embryo (i.e., egg) produced in each microfluidic chamber. This phenotype was also indicative for a general sterility phenotype (i.e., no egg produced) (7). • Worm fertility: this parameter was measured to evaluate the potential effects of the tested compound on the average number of eggs produced by each worm during the reproductive span, calculated via the images acquired during the assay (7). • Reproductive span: this parameter was measured to evaluate the potential effects of the tested compound on the duration in which the worms have reproductive ability, determined by the observation of the last embryo produced in each microfluidic chamber. • Worm longevity: this parameter was measured to evaluate the potential effects of the tested compound on the worm's survival. […]

Row | effect on the worm's size (in words) (N2 wild type worms [3]) | SMILES | Eggs laid (#) (N2 wild type worms [1]) | Egg laying start (N2 wild type worms [1]) [h] | Egg laying end (N2 wild type worms [1]) [h] | Reproductive span (N2 wild type worms [1]) [h] | Variation (%) of egg laying end (time of the last egg laid) (N2 wild type worms [1]) | Variation (%) of egg laying start (N2 wild type worms [1]) [%] | Variation (%) of eggs laid (N2 wild type worms [1]) [%] | Variation (%) of reproductive span (timespan of egg laying) (N2 wild type worms [1]) | overall motility: all motility parameters improved, in average (N2 wild type worms [2]) [%] | Variation (%) of worm area AUC (N2 wild type worms [3]) | motility in Phase 1 (in words) (N2 wild type worms [2]; Phase 1 (D0 to D5)) | motility in Phase 2 (in words) (N2 wild type worms [2]; Phase 2 (D6 to D10)) | motility in Phase 3 (in words) (N2 wild type worms [2]; Phase 3 (D11 to D15)) | motility in Phase 4 (in words) (N2 wild type worms [2]; Phase 4 (D16 to D20)) | overall motility of the worms (in words) (N2 wild type worms [2]; 2-way ANOVA)
1 | significant improvement | CO[C@H]1C[C@@H]2CC[C@@H](C)[C@@](O)(O2)C(=O)C(=O)N2CCCC[C@H]2C(=O)O[C@H]([C@H](C)C[C@@H]2CC[C@@H](O)[C@H](OC)C2)CC(=O)[C@H](C)/C=C(\C)[C@@H](O)[C@@H](OC)C(=O)[C@H](C)C[C@H](C)/C=C/C=C/C=C/1C [Cpd 1, rapamycin] | 96.6 # | 29.59 | 144.0 | 114.4 | −3.1% | −3.2 | −32.9 | −3.1% | 14 | +0.8% |  |  |  |  | 
2 | significant decrease | CN(C)C(=N)N=C(N)N [Cpd 2, metformin] | 94.9 # | 29.63 | 152.7 | 123.1 | +2.8% | −3.1 | −34.1 | +4.3% | 22 | −3.3% | significant increase in almost all the motility parameters | significant increase in almost all the motility parameters | No effect on the motility | No effect on the motility | significantly increased

From US20240350464A1, “METHODS OF TREATING NEUROLOGICAL, MUSCULAR, AND PROLIFERATIVE DISORDERS” (Elixira Pharma AG, priority 2023, published 2024)
